Reference: patent US10729691B2, “Treatment of infectious diseases with glucose uptake inhibitors” (Kadmon Corporation LLC, priority 2015, dated 2020)

Tested on: P. falciparum-infected RBCs
Assay: Glycolysis IC50 / lactate excretion assay in P. falciparum-infected RBCs
Assay type: cell-based
Settings: Plasmodium falciparum
Procedure: The cultures were harvested and DNA quantitated using the standard Sybr Green I fluorescence assay. […] The culture medium was harvested and extracellular lactic acid was quantified by LC-MS.
P. falciparum (HB-3 strain) cultures were maintained in standard culture conditions. […] Parasites were grown in O+ donor blood, 2% hematocrit.
Parasite cultures were seeded in 96-well plates (1% hematocrit, 1-2% starting parasitemia, 100 μL total volume) with varying concentrations of the test compounds in a final concentration of 0.1% DMSO. Plates were cultured for 48 hours before harvesting the culture medium for LC-MS analysis. At harvest, thin smears were taken and examined microscopically to observe any alterations in parasite morphology.
Culture medium samples were diluted in 9 volumes of methanol containing U-^13C-glucose and 1-^13C-lactate (final concentration 0.25 mM each). The samples were clarified by centrifugation at 13,000 RCF for 10 minutes. […] Mobile phase A was acetonitrile, and mobile phase B was 20 mM ammonium acetate (pH 9.4).
The sample was analyzed on an Exactive mass spectrometer (Thermo Scientific) to determine the chromatographic peak areas the analytes and internal standards. Glucose and lactate were quantified by taking the ratio of the unlabeled peak area to the area of the isotope-labeled standard.

| SMILES | IC50 [nM] |
| --- | --- |
| CCC(C)(C)NC(=O)COc1cccc(-c2nc(Nc3ccc(-c4cn[nH]c4)cc3)c3sccc3n2)c1 [Example 43, 2-(3-(4-((4-(1H-pyrazol-4-yl)phenyl)amino)thieno[3,2-d]pyrimidin-2-yl)phenoxy)-N-(tert-pentyl)acetamide] | 10 to 100 |
| O=C(COc1cccc(-c2nc3c(c(Nc4ccc(-c5cn[nH]c5)cc4)n2)CSC3)c1)NC1CCCC1 [Example 36, 2-(3-(4-((4-(1H-pyrazol-4-yl)phenyl)amino)-5,7-dihydrothieno[3,4-d]pyrimidin-2-yl)phenoxy)-N-cyclopentylacetamide] | 501 to 1000 |
| CC(C)NC(=O)COc1cccc(-c2nc3c(c(Nc4ccc(-c5cn[nH]c5)cc4)n2)COC3)c1 [Example 2, 2-(3-(4-((4-(1H-pyrazol-4-yl)phenyl)amino)-5,7-dihydrofuro[3,4-d]pyrimidin-2-yl)phenoxy)-N-isopropylacetamide] | 101 to 250 |
| CC(=O)N1Cc2nc(-c3cccc(OCC(=O)NC(C)C)c3)nc(Nc3ccc(-c4cn[nH]c4)cc3)c2C1 [Example 54, 2-(3-(4-((4-(1H-pyrazol-4-yl)phenyl)amino)-6-acetyl-6,7-dihydro-5H-pyrrolo[3,4-d]pyrimidin-2-yl)phenoxy)-N-isopropylacetamide] | 501 to 1000 |
| Cn1ncc2c(Nc3ccc(-c4cn[nH]c4)cc3)nc(-c3cccc(OCC(=O)NC4CCCC4)c3)nc21 [Example 17, 2-(3-(4-((4-(1H-pyrazol-4-yl)phenyl)amino)-1-methyl-1H-pyrazolo[3,4-d]pyrimidin-6-yl)phenoxy)-N-cyclopentylacetamide] | 101 to 250 |
| CC(C)NC(=O)COc1cccc(-c2nc3c(c(Nc4ccc(-c5cn[nH]c5)cc4)n2)COCC3)c1 [Example 40, 2-(3-(4-((4-(1H-pyrazol-4-yl)phenyl)amino)-7,8-dihydro-5H-pyrano[4,3-d]pyrimidin-2-yl)phenoxy)-N-isopropylacetamide] | 10 to 100 |
| Cn1cnc2c(Nc3ccc(-c4cn[nH]c4)cc3)nc(-c3cccc(OCC(=O)NC4CCC4)c3)nc21 [Example 11] | 101 to 250 |

The remaining lines, values ahead:

| IC50 [nM] | SMILES |
| --- | --- |
| 101 to 250 | O=C(COc1cccc(-c2nc3c(c(Nc4ccc(-c5cn[nH]c5)cc4)n2)COC3)c1)NC1CCCC1 [Example 13] |
| 10 to 100 | CCC(CC)NC(=O)COc1cccc(-c2nc3c(c(Nc4ccc(-c5cn[nH]c5)cc4)n2)CN(C(C)=O)C3)c1 [Example 55, 2-(3-(4-((4-(1H-pyrazol-4-yl)phenyl)amino)-6-acetyl-6,7-dihydro-5H-pyrrolo[3,4-d]pyrimidin-2-yl)phenoxy)-N-(pentan-3-yl)acetamide] |
| 251 to 500 | O=C(COc1cccc(-c2nc(Nc3ccc(-c4cn[nH]c4)cc3)c3sccc3n2)c1)NC1CC1 [Example 5] |
| 10 to 100 | CC(C)NC(=O)COc1cccc(-c2nc3c(c(Nc4ccc(-c5cn[nH]c5)cc4)n2)CN(C(=O)C(C)C)CC3)c1 [Example 1, 2-(3-(4-((4-(1H-pyrazol-4-yl)phenyl)amino)-6-isobutyryl-5,6,7,8-tetrahydropyrido[4,3-d]pyrimidin-2-yl)phenoxy)-N-isopropylacetamide] |
| 251 to 500 | CC(C)CNC(=O)COc1cccc(-c2nc(Nc3ccc(-c4cn[nH]c4)cc3)c3ncccc3n2)c1 [Example 14, 2-(3-(4-((4-(1H-pyrazol-4-yl)phenyl)amino)pyrido[3,2-d]pyrimidin-2-yl)phenoxy)-N-isobutylacetamide] |
| 501 to 1000 | O=C(COc1cccc(-c2nc3c(c(Nc4ccc(-c5cn[nH]c5)cc4)n2)CSC3)c1)NC1CCC1 [Example 35, 2-(3-(4-((4-(1H-pyrazol-4-yl)phenyl)amino)-5,7-dihydrothieno[3,4-d]pyrimidin-2-yl)phenoxy)-N-cyclobutylacetamide] |
| 10 to 100 | CC(=O)N1CCc2nc(-c3cccc(OCC(=O)NC(C)(C)C)c3)nc(Nc3ccc(-c4cn[nH]c4)cc3)c2C1 [Example 48, 2-(3-(4-((4-(1H-pyrazol-4-yl)phenyl)amino)-6-acetyl-5,6,7,8-tetrahydropyrido[4,3-d]pyrimidin-2-yl)phenoxy)-N-(tert-butyl)acetamide] |
